The values that follow come from patent publication EP0167943A2, “Benzimidazole derivatives, process for their preparation, and their use as pharmaceuticals” (BEECHAM GROUP PLC, priority 1984, dated 1986).

For the experiment, the system named is gastric acid secretion. Briefly: perfused rat stomach preparation (histamine-stimulated acid secretion, perfusate pH). The conditions noted are these: bolus intravenous injection, maximal reduction in hydrogen-ion concentration as percentage of control, histamine infusion, urethane anaesthetised rat. The format is in vivo, male Wistar rats. The procedure: The ability of the compounds of the invention to modify the pH of gastric acid secretion was investigated as follows:
The perfused rat stomach preparation
The lumen of the stomach of male Wistar rats (approximately 200 g bodyweight) was perfused, via a cannula designed to reduce the dead space of the stomach, with 5% glucose solution (37^00) at the rate of 3 ml/min. The perfusate was forced over the surface of the secretory mucosa only, the antrum being excluded. The effluent then passed over a microflow type glass pH electrode via collecting funnel situated in the non-glandular forestomach.
The secretagogue histamine was administered as a constant intravenous infusion to produce a steady rate of acid secretion. Test compounds were administered in solution as bolus intravenous injections and any effect on the pH of the perfusate noted. The perfusate pH was recorded on a potentiometric recorder and anti-secretory responses were measured in terms of the maximal reduction in hydrogen-ion concentration expressed as a percentage of the 'control' concentrations.

Broadly, the Inhibition is how much of the control response was suppressed. Low values mean a response near the control, high ones a response far below the control. Turning to `[O-][S+](Cc1cc(OCCc2ccccc2)ccn1)c1nc2ccccc2[nH]1` (centres unmarked) [Example 18b, 2-[(4'-Phenethyloxypyrid-2-yl)methylsulphinyl]benzimidazole], the Inhibition (dose 2 (µmol/kg)) stood at 100%.

Compound `Cc1cnc(C[S+]([O-])c2nc3ccccc3[nH]2)cc1OCc1ccccc1` (centres unmarked) [Example 24b] displayed an Inhibition (dose 2.5 (µmol/kg)) of 91%.

Take `COc1ccc(COc2ccnc(C[S+]([O-])c3nc4ccccc4[nH]3)c2C)cc1` (centres unmarked) [Example 7b, 2-[(4-[4-methoxybenzyloxy]-3-methylpyrid-2-yl)methylsulphinyl]benzimidazole]: for the setting “dose 2 (µmol/kg)”, the Inhibition is 86%.

In the case of `Cc1c(OCc2ccc(F)cc2)ccnc1C[S+]([O-])c1nc2ccccc2[nH]1` (centres unmarked) [Example 10b, 2-[(4-[4-Fluorobenzyloxy]-3-methylpyrid-2-yl)methylsulphinyl]benzimidazole], the Inhibition (dose 1 (µmol/kg)) is 80%.

The compound `Cc1c(OCc2ccccc2)ccnc1C[S+]([O-])c1nc2ccccc2[nH]1` (centres unmarked) [Example 1b, 2-[(4-Benzyloxy-3-methylpyrid-2-yl)methylsulphinyl]-benzimidazole] showed an Inhibition (dose 0.5 µmol/kg) of 82%.

As to “2-[(4-[3,5-dichlorobenzyloxy]-3-methylpyrid-2-yl)methyl sulphinyl]benzimidazole [Example 8b]”, the Inhibition (dose 2 (µmol/kg)) was 80%.

For the setting “dose 2 (µmol/kg)”, `[O-][S+](Cc1cc(OCc2ccc(F)cc2)ccn1)c1nc2ccccc2[nH]1` (centres unmarked) [Example 21b, 2-[(4-(4-Fluorobenzyloxy)pyrid-2-yl)methylsuphinyl]-benzimidazole] displayed an Inhibition of 100%.

`Cc1c(Oc2ccccc2)ccnc1C[S+]([O-])c1nc2ccccc2[nH]1` (centres unmarked) [Example 20b, 2-[(3-Methyl-4-phenoxypyrid-2-yl)methylsulphinyl]-benzimidazole] returned an Inhibition (dose 2 (µmol/kg)) of 72%.
